This note sets out measurements from ChEMBL document CHEMBL1201862, “PubChem BioAssay data set” (2004).

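1) Cells in 96-well plates. 2) Compound, 48 h, 5 concentrations. 3) Linear interpolation between surrounding doses. 4) Unreached endpoint = highest concentration. GI50 is the concentration that inhibits growth by half.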 Calls of active or inactive are those of the source. Rule as the data show it: active = GI50 up to about 1.1 µM and inactive = higher.

Some test systems named below: DLD-1; HOP-18; RXF 631; SNB-78; XF498; DMS-114; DMS-273; KM-20L2; M19-MEL.
Common to all, as to assay: NCI anticancer screen, dose series, 48 h

As to `CCCCCCCCCCCCCCCc1nnc(SCC(=O)O)[nH]1`, the GI50 in the experiment with DLD-1 was 23.4 µM (inactive); with HOP-18, > 100 µM (inactive); in the experiment on RXF 631 it was 19.6 µM (inactive); with SNB-78 it was > 100 µM (inactive); with XF498, 65.8 µM (inactive).

Turning to `C=C1C(C)C2C(Cc3ccccc3)NC(=O)C23C(OC(C)=O)C=CC(C)(O)C(=O)C(C)C/C=C/C3C1O` (stereo not drawn), the GI50 was 0.78 µM (active) with DLD-1; 8.71 µM (inactive) in the experiment on DMS-114; 1.96 µM (inactive) in the experiment with DMS-273; 0.158 µM (active) in the experiment on KM-20L2; 16.1 µM (inactive) with M19-MEL; 0.117 µM (active) in the experiment on RXF 631. Also, the GI50 in the experiment on SNB-78 was 0.116 µM (active); in the experiment on XF498 it was 2.01 µM (inactive).

On to `COc1ccc(C[C@]23CCC(=O)N2CCc2cc(OC)c(O)cc23)cc1O`, for which the GI50 with DMS-114, in the experiment with DMS-273, in the experiment with HOP-18, in the experiment on KM-20L2, in the experiment on M19-MEL and with RXF 631 was > 100 µM (inactive) each time. Moreover, the GI50 in the experiment with SNB-78 was > 100 µM (inactive).

In the case of `Cc1cc2c3c(coc3c1-c1c(C)cc3c4c(coc14)C(=O)C(O)=C3C(C)C)C(=O)C(O)=C2C(C)C`, the GI50 with DLD-1 was 4.6 µM (inactive); in the experiment on DMS-114, 2.63 µM (inactive); in the experiment on DMS-273, 4 µM (inactive); with KM-20L2, 6.04 µM (inactive); with M19-MEL, 7.03 µM (inactive); in the experiment with RXF 631, 8.71 µM (inactive). Besides, the GI50 is 9.44 µM (inactive) with SNB-78 and 4.79 µM (inactive) with XF498.

In the case of `CC(C)CC(NC(=O)c1cccc(O)c1O)C(=O)NCc1cc(CNC(=O)C(CC(C)C)NC(=O)c2cccc(O)c2O)cc(CNC(=O)C(CC(C)C)NC(=O)c2cccc(O)c2O)c1` (stereo not drawn), the GI50 in the experiment on DLD-1 was 20.9 µM (inactive); with DMS-114, 5.13 µM (inactive); with DMS-273, 15.6 µM (inactive); with HOP-18, 24 µM (inactive); with KM-20L2, 7.11 µM (inactive); in the experiment with SNB-78, 29.1 µM (inactive).

For `CC1=C(C(=O)Nc2cc(F)c(F)cc2F)C(c2cccc([N+](=O)[O-])c2)C(C(=O)Nc2ccccc2C(F)(F)F)=C(C)N1` (stereo not drawn), the GI50 is 25.3 µM (inactive) in the experiment with DLD-1; 17 µM (inactive) with DMS-114; 23.8 µM (inactive) in the experiment on KM-20L2; 27.2 µM (inactive) with M19-MEL; 19.2 µM (inactive) in the experiment on RXF 631; 19.5 µM (inactive) in the experiment with SNB-78.

On to `CCCCc1c2c(nc3c1CC/C(=C\c1ccccc1)C3=O)CCCC2`, for which the GI50 with DLD-1 was 3.38 µM (inactive); with DMS-114 it was 7.74 µM (inactive); in the experiment with DMS-273, 2.59 µM (inactive); with KM-20L2, 3.59 µM (inactive); in the experiment on M19-MEL it was 4.72 µM (inactive); in the experiment on SNB-78, 2.99 µM (inactive).

For `COc1cc2c(cc1O)C=NCC2`, the GI50 in the experiment on DLD-1, with DMS-114, in the experiment with DMS-273, in the experiment with KM-20L2, with M19-MEL and in the experiment with SNB-78 was > 100 µM (inactive) in each case. In addition, the GI50 with XF498 was > 100 µM (inactive).

Consider `CC1(C)C(=O)C(C)(C)C1=NN`, for which the GI50 with DLD-1, with DMS-114, with DMS-273, in the experiment on KM-20L2, in the experiment on M19-MEL and in the experiment on SNB-78 was > 100 µM (inactive) in each case. In addition, the GI50 with XF498 was > 100 µM (inactive).

For the molecule `CC(=O)C1Cn2c(=O)c3cc4ccccc4cc3c(=O)n2C=C1C` (stereo not drawn), the GI50 in the experiment with DLD-1, in the experiment on DMS-114, with DMS-273, in the experiment on KM-20L2, in the experiment on M19-MEL and in the experiment with RXF 631 was > 100 µM (inactive) in each case. The GI50 in the experiment with SNB-78 and in the experiment with XF498 was > 100 µM (inactive) throughout.

For `CCSC(SCC)=C1C(=O)N(c2ccccc2)N=C1C`, the GI50 was 11.8 µM (inactive) in the experiment with DLD-1; 16.1 µM (inactive) in the experiment on DMS-273; 13.2 µM (inactive) in the experiment on HOP-18; 16.8 µM (inactive) in the experiment with KM-20L2; 0.378 µM (active) in the experiment with M19-MEL; 18.6 µM (inactive) in the experiment with SNB-78. In addition, the GI50 in the experiment with XF498 is 10.6 µM (inactive).

As to `O=C(c1cccs1)N(C(=S)N1CCN(c2ccccn2)CC1)C1CCCCC1`, the GI50 in the experiment with DLD-1 was 63.8 µM (inactive); in the experiment with DMS-114, 36.9 µM (inactive); in the experiment with DMS-273, 43.1 µM (inactive); with HOP-18, > 100 µM (inactive); in the experiment with KM-20L2, 70.6 µM (inactive); in the experiment with SNB-78, > 100 µM (inactive).

`COc1cccc(NC(=O)CSc2nnc(-c3ccc(NC(C)=O)cc3)o2)c1`: the GI50 in the experiment on DLD-1 was > 100 µM (inactive); with DMS-114 it was > 100 µM (inactive); with DMS-273 it was > 100 µM (inactive); in the experiment with HOP-18, 14 µM (inactive); with KM-20L2, 94.6 µM (inactive); in the experiment on M19-MEL, > 100 µM (inactive). Moreover, the GI50 in the experiment with SNB-78 is > 100 µM (inactive).

For the molecule `N#C/C(=C(/S)Nc1ccccc1)c1nc2ccccc2[nH]1`, the GI50 in the experiment on DLD-1, in the experiment with DMS-114, with DMS-273, with HOP-18, in the experiment with KM-20L2 and in the experiment with M19-MEL was > 10 µM (inactive) in each case. Moreover, in the experiment with XF498, the GI50 is > 10 µM (inactive).

For `Cc1cc(C=O)c2c(=O)c3c(O)ccc(/C=C/C(C)C)c3oc2c1`, the GI50 in the experiment with DLD-1 was 70.1 µM (inactive); in the experiment on DMS-114, 41.4 µM (inactive); in the experiment on DMS-273, 48.3 µM (inactive); in the experiment with KM-20L2, > 100 µM (inactive); in the experiment on M19-MEL it was 36.7 µM (inactive).

Consider `CC(=O)c1ccc2c(ccc(=O)n2C)c1`, for which the GI50 with DLD-1, in the experiment with DMS-114, with DMS-273, with HOP-18, with KM-20L2 and in the experiment on M19-MEL was > 100 µM (inactive) each time. Besides, in the experiment with XF498, the GI50 is > 100 µM (inactive).

Take `NC1=NN(c2ccccc2)C(=O)C1/C(=N\NC(=O)c1cc2ccccc2cc1O)C(=O)Nc1cccc(C(F)(F)F)c1` (stereo not drawn): the GI50 with DLD-1 is 36.6 µM (inactive); with DMS-114, 24.8 µM (inactive); in the experiment with HOP-18 it was 21.2 µM (inactive); in the experiment with KM-20L2, 32.6 µM (inactive); in the experiment with M19-MEL, 35.2 µM (inactive); in the experiment on SNB-78, 44 µM (inactive). For the same molecule, in the experiment on XF498, the GI50 is 64.9 µM (inactive).

As for `CCN(c1ccccc1)[C@H]1C(=O)N(c2ccc([N+](=O)[O-])cc2)[C@H]1c1ccc(OC)cc1`, the GI50 in the experiment with DLD-1 is > 100 µM (inactive); with DMS-114, > 100 µM (inactive); in the experiment with DMS-273 it was > 100 µM (inactive); with M19-MEL, 61.7 µM (inactive); with RXF 631, 35.8 µM (inactive); in the experiment on SNB-78, > 100 µM (inactive).

Consider `CC(C)C(=O)/C=C/c1ccc(Cl)cc1`, for which the GI50 was 11.9 µM (inactive) in the experiment with DLD-1; 16.9 µM (inactive) with DMS-114; 3.99 µM (inactive) with DMS-273; 4.9 µM (inactive) in the experiment with HOP-18; 26.2 µM (inactive) in the experiment on KM-20L2; 14.4 µM (inactive) with M19-MEL. Moreover, the GI50 with XF498 was 7.78 µM (inactive).

As for `CC1(O)CCC2(C)C(=O)C1(C)CCC21OCCO1` (stereo not drawn), the GI50 in the experiment with DLD-1, in the experiment with DMS-114, in the experiment with DMS-273, with HOP-18, in the experiment with M19-MEL and with XF498 was > 100 µM (inactive) throughout.

`CCOP1(=O)C=CC(Cl)=C(C)C1` (stereo not drawn): the GI50 in the experiment on DLD-1 was 6.97 µM (inactive); in the experiment with DMS-114, 15.6 µM (inactive); in the experiment with HOP-18, 17.4 µM (inactive); with KM-20L2, 16.9 µM (inactive); in the experiment on M19-MEL it was 21.6 µM (inactive); in the experiment with SNB-78 it was 18.9 µM (inactive). Moreover, the GI50 with XF498 is 19 µM (inactive).

`O=C1C(NCCO)=C(N2CC2)C(=O)C(NCCO)=C1N1CC1`: the GI50 in the experiment with DLD-1 is > 46.2 µM (inactive); with DMS-114 it was 19.5 µM (inactive); in the experiment on DMS-273 it was 5.46 µM (inactive); in the experiment on HOP-18, > 100 µM (inactive); with KM-20L2 it was > 100 µM (inactive); in the experiment on M19-MEL it was 28.5 µM (inactive). For the same molecule, the GI50 was > 100 µM (inactive) in the experiment on SNB-78 and 53.3 µM (inactive) in the experiment on XF498.

As for `Cc1ccc(NC(=O)CC/C(CC(=O)c2ccc(Cl)cc2)=N\NC(=O)C(=O)NN)cc1C`, the GI50 with DLD-1, with DMS-114, in the experiment with DMS-273, in the experiment on HOP-18, with KM-20L2 and in the experiment on M19-MEL was > 100 µM (inactive) each time. In addition, the GI50 in the experiment with SNB-78 and in the experiment on XF498 was > 100 µM (inactive) each time.

For the molecule `COc1ccc(C(CCC(C)=O)C(=O)O)cc1OC` (stereo not drawn), the GI50 in the experiment on DLD-1, with DMS-273, with HOP-18, in the experiment with KM-20L2, with M19-MEL and in the experiment with SNB-78 was > 100 µM (inactive) in each case. In addition, the GI50 in the experiment with XF498 is > 100 µM (inactive).

For the molecule `COc1cc(C2c3cc4c(cc3[C@@H](N(C)c3ccc(N(C)C)cc3)C3COC(=O)C23)OCO4)cc(OC)c1O` (stereo partly drawn), the GI50 is 0.443 µM (active) in the experiment with DLD-1; 0.264 µM (active) in the experiment on DMS-114; 0.291 µM (active) in the experiment on DMS-273; 13.4 µM (inactive) in the experiment on HOP-18; 0.21 µM (active) with KM-20L2; 0.721 µM (active) with M19-MEL. Besides, the GI50 in the experiment on RXF 631 is 0.357 µM (active); in the experiment on XF498, 0.286 µM (active).

Turning to `Nc1cccc(S(=O)(=O)NCC(=O)O)c1`, the GI50 in the experiment with DLD-1, in the experiment on DMS-114, in the experiment with DMS-273, in the experiment with HOP-18, in the experiment with KM-20L2 and in the experiment on M19-MEL was > 100 µM (inactive) each time. For the same molecule, the GI50 with RXF 631, in the experiment with SNB-78 and with XF498 was > 100 µM (inactive) each time.

Turning to `CCOc1ccc(NCc2cc(OC)c(OC)c(OC)c2)cc1`, the GI50 in the experiment with DLD-1 was 0.807 µM (active); in the experiment on DMS-114, 0.291 µM (active); in the experiment on KM-20L2 it was 0.333 µM (active).
